In article PMC9839507 (ACS applied materials & interfaces, 2022):

System: orthotopic U87MG-luc glioma
Type: in vivo, BALB/c nude mice

## CC1(C)C(/C=C/C=C/C=C/C=C2\N(CCCCS(=O)(=O)O)c3ccc4ccccc4c3C2(C)C)=[N+](CCCCS(=O)(=O)[O-])c2ccc3ccccc3c21 [ICG, indocyanine green, reference compound]
2 h after i.v. injection, 30 nmol, n = 3
  detection in orthotopic glioma by fluorescent imaging: detected
Figure S9
  ICG signal at the tumor site by tissue fluorescence imaging: slightly detectable
Brains harvested at 72 h postinjection
  ex vivo fluorescent signals in tumors: undetectable
